We go through 24 molecules from patent EP1120414A1, “DISUBSTITUTED MALEIMIDE COMPOUNDS AND MEDICINAL UTILIZATION THEREOF” (Japan Tobacco Inc., priority 1998, dated 2000).

Counter-ions that a name gives are not always drawn.

The target of one experiment is T1, PKC β II (Homo sapiens, UniProt P05771).
T1 construct: purchased CALBIOCHEM
Description: PKC enzyme assay (BIOTRAK Protein kinase C enzyme assay system, 32P-ATP phosphorylation of peptide […]). The note with it: for Ratio α/β: IC50 PKC α / IC50 PKC β II; for IC50: Protein Kinase C, Human Recombinant, test substance 1 nM-10 µM, 37°C, 15 minutes, read-out: Inhibition of PKC activity IC50 PKC β II. It counts as biochemical. The text has this: The method for determining the PKC inhibitory activity of the compound of the present invention is explained in the following. Inasmuch as PKCβII is present in greater number in intravascular cells than PKCβI, PKCβII was mainly used here to test the enzyme activity.
(§1) As the reagent for enzyme assay, BIOTRAK Protein kinase C enzyme assay system (hereinafter the system, Amersham), and as the PKC enzyme standard product, Protein Kinase C, Human Recombinant (CALBIOCHEM) were purchased and used in the assay. A substrate mixture was prepared by mixing calcium buffer (12 mM calcium acetate, 50 mM Tris/HCl pH 7.5, 0.05% (w/v) sodium azide), Lipid (0.3 mg/ml La-phosphatidyl-L-serine, […] phorbol 12-myristate 13-acetate, 50 mM Tris/HCl pH 7.5, 0.05% (w/v) sodium azide), peptide buffer (900 µM peptide […]), 50 mM Tris/HCl pH 7.5, 0.05% (w/v) sodium azide), DTT buffer (30 mM dithiothreitol, 50 mM Tris/HCl pH 7.5, 0.05% (w/v) sodium azide), and magnesium ATP buffer (1.2 mM ATP, […] pH 7.4, 72 mM magnesium chloride) all attached to the system in a ratio of 1:1:1:1:0.8 and adding [ y -32P]ATP (Amersham, cat. […] The PKC enzyme standard product was diluted with an assay buffer (10 mM Hepes pH 7.4, 0.01% Triton X-100) to a concentration of 400 ng/ml and used as the enzyme solution. The substrate mixture and a test substance (diluted to the final concentration of 1 nM-10 µM with dimethyl sulfoxide (DMSO)) were mixed at a ratio of 20:1. The enzyme solution was added in the amount equivalent to the substrate mixture and mixed, which was followed by incubation at 37°C for 15 minutes. The reaction terminator (300 mM orthophosphoric acid containing carmosine red) attached to the system was added in the amount equivalent to the substrate mixture to end the reaction, and the reaction mixture was spotted on a phosphocellulose paper (Whatman, P-81), washed twice with 75 mM orthophosphoric acid and assayed for radioactivity by BAS2000 (Fuji film).
(§2) The ratio of the radioactivity of the addition of the test substance to the addition of DMSO was determined, and IC50 was calculated from inhibition at each concentration.

For the next experiment, the target named is T2, PKC α (Homo sapiens, UniProt P17252).
T2 construct: purchased CALBIOCHEM
The experiment is described as above. It counts as biochemical. Particulars: Protein Kinase C, Human Recombinant; test substance 1 nM-10 µM; 37°C, 15 minutes; read-out: Inhibition of PKC activity IC50 PKC α. The protocol:
as §1, §2

T1 sequence (P05771 other isoform, or with tags, fused parts or gaps): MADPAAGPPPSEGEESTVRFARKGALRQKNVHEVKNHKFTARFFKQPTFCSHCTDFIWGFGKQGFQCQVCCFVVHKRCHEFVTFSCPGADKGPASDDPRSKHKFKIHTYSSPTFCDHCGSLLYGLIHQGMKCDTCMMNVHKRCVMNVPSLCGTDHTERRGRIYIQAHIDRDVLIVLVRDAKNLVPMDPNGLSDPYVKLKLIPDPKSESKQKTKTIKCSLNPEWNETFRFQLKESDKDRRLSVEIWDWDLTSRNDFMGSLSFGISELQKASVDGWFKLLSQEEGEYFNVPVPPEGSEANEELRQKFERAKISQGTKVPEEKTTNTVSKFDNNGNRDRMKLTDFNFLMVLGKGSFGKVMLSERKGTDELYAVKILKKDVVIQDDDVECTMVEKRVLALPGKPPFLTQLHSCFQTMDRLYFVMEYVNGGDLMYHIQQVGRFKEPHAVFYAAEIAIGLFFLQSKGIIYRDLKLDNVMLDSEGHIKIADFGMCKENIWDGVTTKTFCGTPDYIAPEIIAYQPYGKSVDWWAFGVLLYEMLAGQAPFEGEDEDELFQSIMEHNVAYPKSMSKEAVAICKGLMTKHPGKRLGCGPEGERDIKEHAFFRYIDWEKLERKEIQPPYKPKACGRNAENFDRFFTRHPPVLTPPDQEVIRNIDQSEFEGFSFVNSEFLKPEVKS

Broadly, the IC50 is the concentration that inhibits the measured activity by half. With `CCN(CCCn1cc(C2=C(Nc3ccccc3)C(=O)NC2=O)c2ccccc21)Cc1ccncc1` [Example 2-18, 3-[1-{3-[N-ethyl-N-(4-pyridylmethyl)amino]propyl}-1H-indol-3-yl]-4-(phenylamino)-1H-pyrrole-2,5-dione], at PKC β II, the “Ratio α/β” value turned out to be 41 and the half-inhibitory concentration (IC50) amounted to 183 nM. Besides, the IC50 on PKC α is 7530 nM.

With `O=C1NC(=O)C(c2cn(CCCN3CCOCC3)c3ccccc23)=C1Nc1ccccc1` [Example 2-19, 3-[1-(3-morpholinopropyl)-1H-indol-3-yl]-4-(phenylamino)-1H-pyrrole-2,5-dione], at PKC β II, the “Ratio α/β” value amounted to 72 and the IC50 was 17 nM. The IC50 on PKC α is 1230 nM.

Take `O=C1NC(=O)C(c2cn(CCCN3CCCCC3)c3ccccc23)=C1Nc1ccccc1` [Example 2-20, 3-[1-(3-piperidinopropyl)-1H-indol-3-yl]-4-(phenylamino)-1H-pyrrole-2,5-dione]: the 50% inhibitory concentration (IC50) on PKC β II came to 17 nM; on PKC α, 726 nM.

Consider `O=C1NC(=O)C(c2cn(CCCN3CCSCC3)c3ccccc23)=C1Nc1ccccc1` [Example 2-21, 3-(phenylamino)-4-[1-(3-thiomorpholinopropyl)-1H-indol-3-yl]-1H-pyrrole-2,5-dione], for which, on PKC β II, the “Ratio α/β” value is on record as 46 and the IC50 is 17 nM. The IC50 on PKC α worked out at 773 nM.

For `O=C1NC(=O)C(c2cn(CCCN3CCCC3)c3ccccc23)=C1Nc1ccccc1` [Example 2-22, 3-(phenylamino)-4-(1-(3-pyrrolidin-1-ylpropyl)-1H-indol-3-yl]-1H-pyrrole-2,5-dione], on PKC β II, the “Ratio α/β” value was 37 and the half-maximal inhibitory concentration (IC50) amounted to 18 nM. Also, at PKC α, the IC50 was found to be 662 nM.

Take `NC(=O)C1CCCN1CCCn1cc(C2=C(Nc3ccccc3)C(=O)NC2=O)c2ccccc21` (centres unmarked) [Example 2-24, 3-[1-{3-(2-carbamoylpyrrolidin-1-yl)propyl}-1H-indol-3-yl]-4-(phenylamino)-1H-pyrrole-2,5-dione]: at PKC β II, the “Ratio α/β” value was 42 and the IC50 is 66 nM. Also, the IC50 on PKC α worked out at 2750 nM.

`O=C1NC(=O)C(c2cn(CCCN3CCC(O)CC3)c3ccccc23)=C1Nc1ccccc1` [Example 2-25, 3-[1-{3-(4-hydroxypiperidino)propyl}-1H-indol-3-yl]-4-(phenylamino)-1H-pyrrole-2,5-dione]: on PKC β II, the “Ratio α/β” value came out at 46 and the concentration for half-maximal inhibition (IC50) was 9 nM. For the same molecule, on PKC α, the IC50 came out at 413 nM.

Turning to `CN1CCN(CCCn2cc(C3=C(Nc4ccccc4)C(=O)NC3=O)c3ccccc32)CC1` [Example 2-26, 3-[1-{3-(4-methylpiperazin-1-yl)propyl}-1H-indol-3-yl]-4-(phenylamino)-1H-pyrrole-2,5-dione], the IC50 on PKC β II was determined as 23 nM; on PKC α it was 968 nM.

Consider `O=C1NC(=O)C(c2cn(CCCCN3CCC(O)CC3)c3ccccc23)=C1Nc1cccc(Cl)c1` [Example 2-27, 3-[(3-chlorophenyl)amino]-4-[1-{4-(4-hydroxypiperidino)butyl}-1H-indol-3-yl]-1H-pyrrole-2,5-dione], for which, at PKC β II, the “Ratio α/β” value stood at 37 and the IC50 was 26 nM. The IC50 on PKC α was 973 nM.

Regarding `O=C1NC(=O)C(c2cn(CCCCCN3CCC(O)CC3)c3ccccc23)=C1Nc1ccccc1` [Example 2-28, 3-[1-{5-(4-hydroxypiperidino)pentyl}-1H-indol-3-yl]-4-(phenylamino)-1H-pyrrole-2,5-dione], on PKC β II, the “Ratio α/β” value was 43 and the concentration for half-maximal inhibition (IC50) stood at 25 nM. The IC50 at PKC α worked out at 1080 nM.

On to `CN1CCN(CCCCn2cc(C3=C(Nc4ccccc4)C(=O)NC3=O)c3ccccc32)CC1` [Example 2-29, 3-[1-{4-(4-methylpiperazin-1-yl)butyl}-1H-indol-3-yl]-4-(phenylamino)-1H-pyrrole-2,5-dione], for which, at PKC β II, the “Ratio α/β” value was found to be 75 and the IC50 turned out to be 25 nM. The IC50 at PKC α amounted to 1870 nM.

`O=C1NC(=O)C(c2cn(CCCN3CCC(N4CCCCC4)CC3)c3ccccc23)=C1Nc1ccccc1` [Example 2-31, 3-(phenylamino)-4-[1-{3-(4-piperidinopiperidino)propyl}-1H-indol-3-yl]-1H-pyrrole-2,5-dione]: on PKC β II, the “Ratio α/β” value was found to be 59 and the half-maximal inhibitory concentration (IC50) was determined as 12 nM. The concentration for half-maximal inhibition (IC50) at PKC α worked out at 703 nM.

Turning to `O=C1NC(=O)C(c2cn(CCCN3CCN(CCO)CC3)c3ccccc23)=C1Nc1ccccc1` [Example 2-32, 3-[1-{3-[4-(2-hydroxyethyl)piperazin-1-yl]propyl}-1H-indol-3-yl]-4-(phenylamino)-1H-pyrrole-2,5-dione], at PKC β II, the “Ratio α/β” value was 57 and the IC50 was 19 nM. Further, on PKC α, the IC50 was 1080 nM.

`NC(=O)C1CCN(CCCn2cc(C3=C(Nc4ccccc4)C(=O)NC3=O)c3ccccc32)CC1` [Example 2-33, 3-[1-{3-(4-carbamoylpiperidino)propyl}-1H-indol-3-yl]-4-(phenylamino)-1H-pyrrole-2,5-dione]: at PKC β II, the “Ratio α/β” value amounted to 68 and the IC50 was found to be 10 nM. The IC50 on PKC α came out at 676 nM.

With `CN(C)C1CCN(CCCn2cc(C3=C(Nc4ccccc4)C(=O)NC3=O)c3ccccc32)CC1` [Example 2-34, 3-[1-{3-(4-dimethylaminopiperidino)propyl}-1H-indol-3-yl]-4-(phenylamino)-1H-pyrrole-2,5-dione], at PKC β II, the “Ratio α/β” value amounted to 57 and the IC50 is 15 nM. In addition, the IC50 on PKC α is 851 nM.

For `O=C1NC(=O)C(c2cn(CCCS(=O)(=O)c3ccccc3)c3ccccc23)=C1Nc1ccccc1` [Example 2-35, 3-[1-{3-(phenylsulfonyl)propyl}-1H-indol-3-yl]-4-(phenylamino)-1H-pyrrole-2,5-dione], on PKC β II, the “Ratio α/β” value was determined as 41 and the IC50 is 95 nM. Further, the 50% inhibitory concentration (IC50) on PKC α was found to be 3890 nM.

For `O=C1NC(=O)C(c2cn(CCCn3ccnc3)c3ccccc23)=C1Nc1ccccc1` [Example 2-36, 3-[1-(3-imidazol-1-ylpropyl)-1H-indol-3-yl]-4-(phenylamino)-1H-pyrrole-2,5-dione], the IC50 came out at 5 nM on PKC β II and 331 nM at PKC α.

For `O=C1NC(=O)C(c2cn(CCCn3cccn3)c3ccccc23)=C1Nc1ccccc1` [Example 2-37, 3-(phenylamino)-4-[1-(3-pyrazol-1-ylpropyl)-1H-indol-3-yl]-1H-pyrrole-2,5-dione], the “Ratio α/β” value on PKC β II was 17. The half-inhibitory concentration (IC50) at PKC β II is 60 nM; at PKC α, above 1000 nM.

Regarding `O=C1NC(=O)C(c2cn(CCCn3cncn3)c3ccccc23)=C1Nc1ccccc1` [Example 2-38, 3-(phenylamino)-4-[1-{3-(1,2,4-triazol-1-yl)propyl}-1H-indol-3-yl]-1H-pyrrole-2,5-dione], at PKC β II, the “Ratio α/β” value turned out to be 25 and the half-maximal inhibitory concentration (IC50) was determined as 40 nM. Moreover, the IC50 on PKC α was above 1000 nM.

`O=C1NC(=O)C(c2cn(CCCn3ccnc3)c3ccccc23)=C1Nc1cccc(Cl)c1` [Example 2-39, 3-[(3-chlorophenyl)amino]-4-[1-(3-imidazol-1-ylpropyl)-1H-indol-3-yl]-1H-pyrrole-2,5-dione]: at PKC β II, the “Ratio α/β” value turned out to be 17 and the IC50 turned out to be 21 nM. The IC50 at PKC α stood at 354 nM.

`O=C1NC(=O)C(c2cn(CCCCn3ccnc3)c3ccccc23)=C1Nc1cccc(Cl)c1` [Example 2-40, 3-[(3-chlorophenyl)amino]-4-[1-(4-imidazol-1-ylbutyl)-1H-indol-3-yl]-1H-pyrrole-2,5-dione]: at PKC β II, the “Ratio α/β” value is listed as 41 and the half-maximal inhibitory concentration (IC50) worked out at 19 nM. On PKC α, the IC50 is 770 nM.

Turning to `O=C1NC(=O)C(c2cn(CCCCCn3ccnc3)c3ccccc23)=C1Nc1ccccc1` [Example 2-41, 3-[1-(5-imidazol-1-ylpentyl)-1H-indol-3-yl]-4-(phenylamino)-1H-pyrrole-2,5-dione], on PKC β II, the “Ratio α/β” value was 44 and the IC50 was 62 nM. The IC50 on PKC α amounted to 2740 nM.

For `Cc1nccn1CCCn1cc(C2=C(Nc3cccc(Cl)c3)C(=O)NC2=O)c2ccccc21` [Example 2-42, 3-[(3-chlorophenyl)amino]-4-[1-{3-(2-methylimidazol-1-yl)propyl}-1H-indol-3-yl]-1H-pyrrole-2,5-dione], on PKC β II, the “Ratio α/β” value is recorded as 45 and the IC50 was 10 nM. Also, the IC50 on PKC α came out at 452 nM.

Turning to `N=C(N)SCCCn1cc(C2=C(Nc3ccccc3)C(=O)NC2=O)c2ccccc21` [Example 2-43, 3-[1-(3-amidinothiopropyl)-1H-indol-3-yl]-4-(phenylamino)-1H-pyrrole-2,5-dione hydrobromide], the IC50 at PKC β II stood at 2 nM; on PKC α, 27 nM.
